Laboratory results reported in patent US20100168038A1, “USE OF COMPOUNDS IN COMBINATION WITH GAMMA-IRRADIATION FOR THE TREATMENT OF CANCER” (priority 2006, published 2010).
Where “and” joins values, the source holds several entries; their conditions need not be identical. Equal values may be shown once. Residues, ends and D or L forms follow the SMILES beside them.

Experiments:
[1] = system: EL-4 lymphoma cells; assay: Tumor growth of EL-4 lymphoma in C57Bl/6 mice, compound with gamma-irradiation; assay type: in vivo, mouse; conditions: for tumor volume: single mouse; for tumor volume, mean: group mean
Source text: (§1) Tumor Growth Experiments. Tumor cells were washed in PBS and resuspended in a volume of 200 micro-l per inoculate. The cells were then inoculated into the right flank at 10^6 per mouse and growth of the tumor was monitored by measurement two times per week. The initiation of anti-tumor treatment of the mice was to some extent individualized according to when tumor growth started in each mouse. The mice were irradiated with 4 Gy prior to tumor inoculation in order to inhibit anti-tumor immune responses. The tumor volume was calculated as the mean volume in mice with tumors growth, according to (a1×a2×a3)/2 (the numbers ai denote tumor diameter, width and depth). The time of first palpation varied between different mice, although the general pattern of growth was similar in virtually all of the mice. In most diagrams a log-scale is used to better visualize the therapeutic effects against small tumors, i.e. the presence of complete rejections. For inhibition of TPPII in vivo we made intraperitoneal injections with 13.8 mg per kg of body weight (14 micro-l of a 50 mM solution/mouse) of the Subtilisin inhibitor Z-Gly-Leu-Ala-OH (Z-GLA-OH, Bachem, Weil am Rhein, Germany) twice per week, diluted into 200 micro-l PBS. All gamma-irradiations were full body exposures.
Table 3 contains further in vivo data, showing tumor volume in mm^3, in groups of 7-8 mice, according to the EL-4 tumor model described above. 1.000.000 EL-4 lymphoma cells were inoculated subcutaneously at day 0. No palpable tumors were observed until day 22. At each treatment (twice weekly) mice with palpable tumors were given 400 Rads irradiation alone, or in combination with 14 micro-l 50 mM solution of Z-GLA-OH. Mice with no palpable tumors were not treated, i.e. in mice with rejected tumors, treatment was terminated and the mice were kept under observation.
All mice were 400 Rad (1 Gy=100 Rad) gamma-irradiated at day 0, a standard procedure to improve tumor acceptance. The compound was inoculated intraperitoneally, whereas tumors were always inoculated subcutaneously.

[2] = system: HeLa cells (human cervical carcinoma); assay: Tumor growth of HeLa cells in CB.17 SCID mice, Z-GLA-OH with gamma-irradiation; assay type: in vivo; conditions: Z-GLA-OH + gamma-irradiation 1.5 Gy/dose
[3] = system: DBA/2-c-Myc/Bcl-xL cells; assay: Tumor growth of DBA/2-c-Myc/Bcl-xL cells in DBA/2 mice; assay type: in vivo, mouse
Source text: as §1
Retroviral transduction and transplantation. […]
Detection of GFP and YFP expression was performed using a Cyan™ ADP cytometer (Dako, Glostrup, Denmark) where after excitation at 488 nm, a 525-nm long-pass dichroic mirror was used to initially separate the signals followed by a 510/21-nm bandpass filter for detection of EGFP and a 550/30-nm band pass filter for EYFP. Data were analyzed using FlowJo software (Tree Star, Inc., San Carlos, Calif.). […]

[4] = Toxicity study in vivo, single agent; conditions: doses up to 100 mg/kg, preliminary study
[5] = EL-4, irradiation + Z-GLA-OH, day 26
[6] = EL-4, irradiation + Z-GLA-OH, day 30
[7] = EL-4, irradiation + Z-GLA-OH, day 34
[8] = EL-4, irradiation + Z-GLA-OH, day 37
[9] = EL-4, irradiation + Z-GLA-OH, day 41
[10] = EL-4, irradiation + Z-GLA-OH, day 44
[11] = EL-4, irradiation + Z-GLA-OH, day 48
[12] = EL-4, irradiation + Z-GLA-OH, day 55
[13] = EL-4, irradiation + Z-GLA-OH, day 62
[14] = EL-4, irradiation + Z-GLA-OH, day 65
[15] = EL-4, irradiation + Z-GLA-OH, day 72
[16] = EL-4, irradiation + Z-GLA-OH, day 78

For `CC(C)C[C@H](NC(=O)CNC(=O)OCc1ccccc1)C(=O)N[C@@H](C)C(=O)O` [Z-GLA-OH, Z-Gly-Leu-Ala-OH] (HELM PEPTIDE1{[O=C(OCc1ccccc1)[*:2]].G.L.A}$$$$V2.0), which “period of observation without re-growth of tumors after treatment was cancelled” value ([1]; EL-4, after 4 Gy + Z-GLA-OH 13.8 mg/kg) is on record?
Its value is “over 3 months”.

And the tumor volume ([1]; EL-4, irradiation 400 Rads + Z-GLA-OH 14 micro-l 50 mM i.p., day 22)?
The tumor volume was 6.00 mm^3 and 0.50 mm^3 (5×) and 4.00 mm^3.

What about the “tumor volume, mean” value ([1]; EL-4, irradiation + Z-GLA-OH, day 22) of the same compound?
Its value is 2.06 mm^3.

And the “tumor volume, mean” value [1, 5]?
Its value is 84.69 mm^3.

And the tumor volume [1, 5]?
Its tumor volume is 108.00 mm^3 (3×) and 126.00 mm^3 and 75.00 mm^3 and 50.00 mm^3 and 40.00 mm^3 and 62.50 mm^3.

What about the “tumor volume, mean” value [1, 6] of the same compound?
Its value is 49.94 mm^3.

And the tumor volume [1, 6]?
The tumor volume was 108.00 mm^3 (2×) and 13.50 mm^3 and 18.00 mm^3 and 24.00 mm^3 and 32.00 mm^3 and 48.00 mm^3 (2×).

What about the “tumor volume, mean” value [1, 7] of the same compound?
Its value is 20.75 mm^3.

What about the tumor volume [1, 7] of the same compound?
The tumor volume was 10.00 mm^3 and 0.50 mm^3 and 62.50 mm^3 and 24.00 mm^3 (2×) and 13.50 mm^3 (2×) and 18.00 mm^3.

And the “tumor volume, mean” value [1, 8]?
The value was 12.69 mm^3.

And the tumor volume [1, 8]?
Its tumor volume is 8.00 mm^3 and 18.00 mm^3 and 12.00 mm^3 and 6.00 mm^3 (2×) and 27.00 mm^3 and 24.00 mm^3 and 0.50 mm^3.

What about the “tumor volume, mean” value [1, 9] of the same compound?
The value was 3.88 mm^3.

And the tumor volume [1, 9]?
The tumor volume was 0.50 mm^3 (3×) and 4.00 mm^3 (4×) and 13.50 mm^3.

What about the “tumor volume, mean” value [1, 10] of the same compound?
The value was 1.14 mm^3.

What about the tumor volume [1, 10] of the same compound?
The tumor volume was 0.50 mm^3 (4×) and 0.10 mm^3 and 2.00 mm^3 and 1.00 mm^3 and 4.00 mm^3.

What about the “tumor volume, mean” value [1, 11] of the same compound?
The value was 0.18 mm^3.

And the tumor volume [1, 11]?
The tumor volume was 0.10 mm^3 (4×) and 0.50 mm^3 (2×) and 0.00 mm^3 (2×).

And the “tumor volume, mean” value [1, 12]?
The value was 0.07 mm^3.

And the tumor volume [1, 12]?
Its tumor volume is 0.00 mm^3 (6×) and 0.10 mm^3 and 0.50 mm^3.

What about the “tumor volume, mean” value [1, 13] of the same compound?
The value was 0.01 mm^3.

And the tumor volume [1, 13]?
Its tumor volume is 0.10 mm^3 and 0.00 mm^3 (7×).

And the “tumor volume, mean” value [1, 14]?
The value was 0.01 mm^3.

What about the tumor volume [1, 14] of the same compound?
Its tumor volume is 0.00 mm^3.

And the “tumor volume, mean” value [1, 15]?
Its value is 0.01 mm^3.

What about the tumor volume [1, 15] of the same compound?
Its tumor volume is 0.10 mm^3 and 0.00 mm^3 (7×).

And the “tumor volume, mean” value [1, 16]?
Its value is 0.00 mm^3.

And the tumor volume [1, 16]?
Its tumor volume is 0.00 mm^3.

What about the “tumor response, summary of Table 3” value ([1]; EL-4, 400 Rads irradiation + 14 micro-l 50 mM Z-GLA-OH at each treatment (twice weekly)) of the same compound?
The value was “complete rejection of established tumors”.

And the “mice with tumor regression (partial effects)” value ([1]; EL-4, Z-GLA-OH 3.5 mg/kg and lower doses + 3 Gy gamma-irradiation doses)?
Its value is 2 out of 4.

What about the “mice with complete tumor rejection” value ([1]; EL-4, Z-GLA-OH 6.9 mg/kg + 3 Gy gamma-irradiation doses) of the same compound?
The value was 3 out of 4.

What about the “mice with complete rejection” value ([1]; EL-4, gamma-irradiation doses of 1 Gy + Z-GLA-OH injection) of the same compound?
Its value is 1 out of 4.

And the “mice with complete rejection” value ([1]; EL-4, gamma-irradiation doses of 2 Gy + Z-GLA-OH injection)?
Its value is 2 out of 5.

And the tumor response ([1]; EL-4, gamma-irradiation doses of 3 Gy + Z-GLA-OH injection)?
Its tumor response is “complete regression”.

And the tumor response ([1]; established EL-4 tumors, C57Bl/6 mice, 3-4 doses of 400 Rad (one dose/week) + Z-GLA-OH 13.8 mg/kg twice weekly, all mice tested)?
Its tumor response is “complete tumor regression”.

And the tumor response [2]?
The tumor response was “strong tumor regression”.

What about the “tumor cells in lung, spleen or liver” value ([3]; Z-GLA-OH 13.8 mg/kg + gamma-irradiation, flow cytometry, histology) of the same compound?
The value was “failed to find tumor cells”.

And the tumor response ([3]; Z-GLA-OH only, no gamma-irradiation)?
Its tumor response is “no reduction of tumor size”.

What about the tumor response ([3]; established DBA/2-c-Myc/Bcl-xL tumors, Z-GLA-OH 13.8 mg/kg + 4 Gy doses of gamma-irradiation) of the same compound?
The tumor response was “complete tumor regression”.

What about the toxicity in vivo [4] of the same compound?
Its toxicity in vivo is “minor effects”.
